{"source": "patent US9724312B2", "about": "“Agent for the prevention, improvement or treatment of retinal disease” (ROHTO PHARMACEUTICAL CO., LTD., priority 2012, dated 2017)", "key": {"[1]": {"tested_on": "PC12", "assay": "Protective effect against ischemic cell death induced by hypoxia and low glucose (Cell Titer-Glo cell viability)", "assay_type": "cell-based, rat", "details": "30 μM, 2 h pre-incubation, then low glucose/zero percent O2 8 h, FIG. 1, n=10, Tukey-Kramer", "from_the_text": "The progress of visual impairment in glaucoma is associated with retinal ganglion cell (RGC) death due to blood flow failure occurring near the optic nerve (Folia Pharmacol. Jpn. 128, 255-258 (2006)). With the use of PC12, which is a typical neural cell line established from rat adrenal […] pheochromocytoma and used also as a model cell for the functional evaluation of RGC (J Neurosci Res. 2000 May 15; 60(4): 495-503), the cytoprotective effect of GGA against ischemic cell death induced by hypoxia and low glucose was evaluated.\nTest samples were prepared as follows. The test substances were four types of GGAs that contain the all-trans form and the 5Z-mono-cis form at a weight ratio of 10:0, 8:2, 6:4, and 0:10, respectively. […]\nAfter 8 hours of incubation, 100 μL of an equivalent mixture of a cell viability detection reagent Cell Titer-Glo (Promega) and PBS was added to each well and the luminescence produced by the reaction with ATP in living cells was measured with a luminometer (GloMax; Promega). The cell viability was calculated from the measured luminescence by the following formula and the cytoprotective effect of GGA against oxidative stress by hydrogen peroxide was examined. Cell viability(%)=100×[(luminescence of base- or GGA-treated group)/(luminescence of non-treated group)]"}, "[2]": {"tested_on": "rat models with glaucoma induced by NMDA", "assay": "Protective effect for retinal ganglion cells against nerve damage by NMDA (thickness of inner plexiform layer)", "assay_type": "in vivo", "details": "once a day", "from_the_text": "In recent years the glutamate analogue NMDA (N-methyl-D-aspartate) has been widely reported to be one of causative agents of neurodegenerative diseases including Alzheimer's disease. In the ophthalmic field, NMDA is considered to be involved in optic nerve damage in glaucoma (Brain Research Bulletin, 81 (2010) 349-358). Accordingly, in this experiment rat models with glaucoma induced by NMDA were used to evaluate the neuroprotective effect of GGA.\nTo Sprague-Dawley (SD) rats, the all-trans form, the 5Z-mono-cis form and teprenone were separately pre-administered by oral administration (Test Example 1), intravitreal administration (Test Example 2) or ocular instillation administration (Test Example 3) and 5 μL of NMDA was administered into the vitreous body to induce nerve damage. For Test Example 2, a marketed therapeutic eye drop for glaucoma, AIPHAGAN (trade name), was intravitreally administered as a positive control once a day for five days. For each of Test Examples, a base not containing GGA or AIPHAGAN was administered as a control in the same manner as described above.\nThe dosage and regimen of Test Examples 1 to 3 are shown in Table 1 and the constitution of the base used in each tests are shown in Table 2.\nThree days after administration of NMDA, the eyeballs were harvested, fixed with half Karnovsky's fixative for 24 hours, embedded in paraffin, thin sectioned and stained with hematoxylin-eosin (HE) to prepare histopathological sections. The histological sections were observed under an optical microscope and the thickness (μm) of the inner plexiform layer (IPL) of the retina was measured. From the thickness of the inner plexiform layer (IPL) of the retina, the neuroprotective effects of the test preparations were evaluated."}, "[3]": {"tested_on": "mouse with visual cell damage induced by light irradiation", "details": "oral administration; cited from earlier work"}, "[4]": {"tested_on": "multiple sclerosis mouse model", "details": "oral administration; cited from earlier work"}, "[5]": {"tested_on": "glaucoma rat model", "details": "intraperitoneal administration; cited from earlier work"}, "[6]": {"tested_on": "mouse with retinal injury induced by ischemia", "details": "oral administration; cited from earlier work"}, "[7]": {"tested_on": "retinal detachment-induced animal", "details": "intraperitoneal administration; cited from earlier work"}, "[8]": {"details": "Test Example 1: oral 800 mg/kg, 2 days, NMDA 4 mM, FIG. 6, Dunnett"}}}
{"compound": "CC(=O)CC/C=C(/C)CC/C=C(\\C)CC/C=C(\\C)CCC=C(C)C", "note": "[5Z-mono-cis form, (5Z,9E,13E)-6,10,14,18-tetramethyl-5,9,13,17-nonadecatetrae n-2-one]", "values": [{"measurement": "cytoprotective effect compared with GGA 6:4", "setting": "[1]", "value": "significantly higher cytoprotective effects"}, {"measurement": "neuroprotective effect against nerve damage by NMDA compared with base (IPL thickness)", "setting": "[2]; [8]", "value": "significant neuroprotective effects"}, {"measurement": "neuroprotective effect against nerve damage by NMDA compared with base (IPL thickness)", "setting": "[2]; Test Example 2: intravitreal 0.05% w/v, 5 days, NMDA 40 mM, FIG. 7, Tukey-Kramer", "value": "significant neuroprotective effects"}]}
{"compound": "teprenone", "values": [{"measurement": "induction of thioredoxin and heat shock protein 72 in the retinal pigment epithelium", "setting": "[3]", "value": "induced thioredoxin and heat shock protein 72 in the retinal pigment epithelium"}, {"measurement": "neuroprotective effect against nerve damage by NMDA compared with base (IPL thickness)", "setting": "[2]; [8]", "value": "did not show a significant neuroprotective effect"}, {"measurement": "cell loss in the ganglion", "setting": "[4]", "value": "prevented cell loss in the ganglion"}, {"measurement": "number of degenerating axons in the optic nerve", "setting": "[4]", "value": "reduced the number of degenerating axons in the optic nerve"}, {"measurement": "visual function", "setting": "[4]", "value": "improved the visual function"}, {"measurement": "expression of heat shock protein 72", "setting": "[5]", "value": "induced the expression of heat shock protein 72"}, {"measurement": "retinal ganglion cell death and optic nerve damage", "setting": "[5]", "value": "reduced retinal ganglion cell death and thereby ameliorated optic nerve damage"}, {"measurement": "number of surviving retinal neurons", "setting": "[6]", "value": "significantly increased the number of surviving retinal neurons"}, {"measurement": "apoptosis of visual cells", "setting": "[7]", "value": "reduced the apoptosis of visual cells significantly"}, {"measurement": "expression of heat shock protein 70", "setting": "[7]", "value": "induced the expression of heat shock protein 70"}]}
